Reference: patent US20100286145A1, “ISOPHTHALAMIDE DERIVATIVES INHIBITING BETA-SECRETASE ACTIVITY” (CoMentis, Inc., priority 2007, published 2010)
Where two headings read alike, the source gives them in different places.

Assays:
[1] = system: Aβ production in Chinese hamster ovary cells that over-express human APP695 with the London and Swedish mutations; assay: Cellular Aβ IC50 determination (Aβ40 sandwich ELISA); assay type: cell-based; details: Cricetulus griseus
Method in brief: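 CHO cells overexpressing human APP695 with London and Swedish mutations, seeded at 10% confluency, treated with compounds up to about 4 μM final (0.4% DMSO). Secreted Aβ40 measured by sandwich ELISA relative to control and fitted to a 4-parameter IC50 model.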

[2] = molecular target: memapsin 2 (Homo sapiens, UniProt P56817); assay: Inhibition of memapsin 2 beta-secretase activity (fluorogenic substrate FS-2); assay type: biochemical; details: memapsin 2, pH 4, 37° C., read-out: M2Ki
memapsin 2, sequence (P56817 46-501): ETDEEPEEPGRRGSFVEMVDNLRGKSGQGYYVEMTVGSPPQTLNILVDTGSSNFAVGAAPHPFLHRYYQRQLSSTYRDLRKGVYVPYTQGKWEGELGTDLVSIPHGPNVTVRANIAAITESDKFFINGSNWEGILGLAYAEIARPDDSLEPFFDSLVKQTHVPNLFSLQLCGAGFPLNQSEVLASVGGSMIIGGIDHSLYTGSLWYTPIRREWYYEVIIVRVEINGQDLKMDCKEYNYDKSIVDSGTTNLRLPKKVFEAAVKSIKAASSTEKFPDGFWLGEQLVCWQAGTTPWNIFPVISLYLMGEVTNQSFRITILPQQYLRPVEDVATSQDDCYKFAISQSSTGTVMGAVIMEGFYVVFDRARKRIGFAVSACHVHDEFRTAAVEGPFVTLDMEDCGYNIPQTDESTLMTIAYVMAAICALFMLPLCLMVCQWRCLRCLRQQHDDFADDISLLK
Method in brief: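 Memapsin 2 pre-incubated 20 min with compound at pH 4, 37° C, then FS-2 substrate (MCA-SEVNLDAEFK-DNP, APP Swedish cleavage site) added. Rate of fluorescence increase compared with uninhibited controls, fitted to a tight-binding inhibition model.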

[3] = cellular Aβ production, read-out: IC50

Compound	IC50 [1, 3] [µM]	Ki ([2]; 20 minutes pre-incubation) [µM]	IC50 [1] [µM]	Ki ([2]; fluorogenic substrate FS-2) [µM]
COc1cc(CNC[C@@H](O)[C@H](Cc2ccccc2)NC(=O)c2cccc(C(=O)N(C)Cc3nc(C)cs3)c2)nc(N)n1 [Compound 207, N1-((2S,3R)-4-((2-amino-6-methoxypyrimidin-4-yl)methylamino)-3-hydroxy-1-phenylbutan-2-yl)-N3-methyl-N3-((4-methylthiazol-2-yl)methyl)isophthalamide]	> 5	0.301 to 0.5	–	–
Cc1csc(CN(C)C(=O)c2cc(C(=O)N[C@@H](Cc3ccccc3)[C@H](O)CNCc3cc(OC(=O)N(C)C)cc(C(C)C)c3)cc(N(C)C)c2)n1 [Compound 209, 3-(((2R,3S)-3-(3-(dimethylamino)-5-(methyl((4-methylthiazol-2-yl)methyl)carbamoyl)benzamido)-2-hydroxy-4-phenylbutylamino)methyl)-5-isopropylphenyl dimethylcarbamate]	–	< 0.3	< 1	–
COc1cccc(CNC[C@@H](O)[C@H](Cc2ccccc2)NC(=O)c2cc(C(=O)N(C)Cc3nc(C)cs3)cc(-c3ccccc3OC)c2)c1 [Compound 210, N3-((2S,3R)-3-hydroxy-4-(3-methoxybenzylamino)-1-phenylbutan-2-yl)-2′-methoxy-N5-methyl-N5-((4-methylthiazol-2-yl)methyl)biphenyl-3,5-dicarboxamide]	< 1	–	–	< 0.3
CC(C)c1cncc(CNC[C@@H](O)[C@H](Cc2ccccc2)NC(=O)c2cc(C(=O)N[C@H](C)c3ccccc3)cc(-c3ncco3)c2)c1 [Compound 211, N1-((2S,3R)-3-hydroxy-4-((5-isopropylpyridin-3-yl)methylamino)-1-phenylbutan-2-yl)-5-(oxazol-2-yl)-N3-((R)-1-phenylethyl)isophthalamide]	< 1	–	–	< 0.3
COc1cc(CNC[C@@H](O)[C@H](Cc2ccccc2)NC(=O)c2cccc(C(=O)N(C)Cc3nc(C)cs3)c2)nc(N(C)C)n1 [Compound 212, N1-((2S,3R)-4-((2-(dimethylamino)-6-methoxypyrimidin-4-yl)methylamino)-3-hydroxy-1-phenylbutan-2-yl)-N3-methyl-N3-((4-methylthiazol-2-yl)methyl)isophthalamide]	< 1	–	–	< 0.3
COc1cccc(CNC[C@@H](O)[C@H](Cc2ccccc2)NC(=O)c2cc(C(=O)N[C@H](C)c3ccccc3)cc(-c3ncco3)c2)c1 [Compound 213, N1-((2S,3R)-3-hydroxy-4-(3-methoxybenzylamino)-1-phenylbutan-2-yl)-5-(oxazol-2-yl)-N3-((R)-1-phenylethyl)isophthalamide]	< 1	–	–	0.301 to 0.5
Cc1csc(CN(C)C(=O)c2cc(C(=O)N[C@@H](Cc3ccccc3)[C@H](O)CNCc3cncc(C(C)C)c3)cc(-c3cnccn3)c2)n1 [Compound 214, N1-((2S,3R)-3-hydroxy-4-((5-isopropylpyridin-3-yl)methylamino)-1-phenylbutan-2-yl)-N3-methyl-N3-((4-methylthiazol-2-yl)methyl)-5-(pyrazin-2-yl)isophthalamide]	< 1	–	–	< 0.3
Cc1csc(CN(C)C(=O)c2cccc(C(=O)N[C@@H](Cc3ccccc3)[C@H](O)CNCc3cc(O)cc(C(C)(C)C)c3)c2)n1 [Compound 215, N1-((2S,3R)-4-(3-tert-butyl-5-hydroxybenzylamino)-3-hydroxy-1-phenylbutan-2-yl)-N3-methyl-N3-((4-methylthiazol-2-yl)methyl)isophthalamide]	< 1	–	–	< 0.3
Cc1csc(CN(C)C(=O)c2cccc(C(=O)N[C@@H](Cc3ccccc3)[C@H](O)CNCc3cncc(Cl)c3)c2)n1 [Compound 216, N1-((2S,3R)-4-((5-chloropyridin-3-yl)methylamino)-3-hydroxy-1-phenylbutan-2-yl)-N3-methyl-N3-((4-methylthiazol-2-yl)methyl)isophthalamide]	< 1	–	–	< 0.3
Cc1csc(CN(C)C(=O)c2cccc(C(=O)N[C@@H](Cc3ccccc3)[C@H](O)CNCc3cncc(C(C)(F)F)c3)c2)n1 [Compound 217, N1-((2S,3R)-4-((5-(1,1-difluoroethyl)pyridin-3-yl)methylamino)-3-hydroxy-1-phenylbutan-2-yl)-N3-methyl-N3-((4-methylthiazol-2-yl)methyl)isophthalamide]	< 1	–	–	< 0.3
COc1cc(CNC[C@@H](O)[C@H](Cc2ccccc2)NC(=O)c2cccc(C(=O)N(C)Cc3nc(C)cs3)c2)cc([N+](=O)[O-])c1 [Compound 221, N1-((2S,3R)-3-hydroxy-4-(3-methoxy-5-nitrobenzylamino)-1-phenylbutan-2-yl)-N3-methyl-N3-((4-methylthiazol-2-yl)methyl)isophthalamide]	< 1	–	–	< 0.3
Cc1csc(CN(C)C(=O)c2cc(C(=O)N[C@@H](Cc3ccccc3)[C@H](O)CNCc3cccc(C(F)(F)F)c3)cc(-c3cnccn3)c2)n1 [Compound 222, N1-((2S,3R)-3-hydroxy-1-phenyl-4-(3-(trifluoromethyl)benzylamino)butan-2-yl)-N3-methyl-N3-((4-methylthiazol-2-yl)methyl)-5-(pyrazin-2-yl)isophthalamide]	< 1	–	–	< 0.3
Cc1csc(CN(C)C(=O)c2cc(C(=O)N[C@@H](Cc3ccccc3)[C@H](O)CNCc3cncc(C(C)C)c3)cc(C(C)O)c2)n1 (stereo partly drawn) [Compound 223, N1-((2S,3R)-3-hydroxy-4-((5-isopropylpyridin-3-yl)methylamino)-1-phenylbutan-2-yl)-5-(1-hydroxyethyl)-N3-methyl-N3-((4-methylthiazol-2-yl)methyl)isophthalamide]	< 1	–	–	< 0.3
COc1cc(CNC[C@@H](O)[C@H](Cc2ccccc2)NC(=O)c2cccc(C(=O)N(C)Cc3nc(C)cs3)c2)cc(N(C)C)c1 [Compound 224, N1-((2S,3R)-4-(3-(dimethylamino)-5-methoxybenzylamino)-3-hydroxy-1-phenylbutan-2-yl)-N3-methyl-N3-((4-methylthiazol-2-yl)methyl)isophthalamide]	< 1	–	–	< 0.3
Cc1csc(CN(C)C(=O)c2cccc(C(=O)N[C@@H](Cc3ccccc3)[C@H](O)CNCc3cncc(F)c3)c2)n1 [Compound 225, N1-((2S,3R)-4-((5-fluoropyridin-3-yl)methylamino)-3-hydroxy-1-phenylbutan-2-yl)-N3-methyl-N3-((4-methylthiazol-2-yl)methyl)isophthalamide]	1 to 5	–	–	< 0.3
Cc1csc(CN(C)C(=O)c2cc(C(=O)N[C@@H](Cc3ccccc3)[C@H](O)CNCc3cncc(C(C)(C)C)c3)cc(N(C)C)c2)n1 [Compound 226, N1-((2S,3R)-4-((5-tert-butylpyridin-3-yl)methylamino)-3-hydroxy-1-phenylbutan-2-yl)-5-(dimethylamino)-N3-methyl-N3-((4-methylthiazol-2-yl)methyl)isophthalamide]	< 1	–	–	< 0.3
Cc1csc(CN(C)C(=O)c2cc(C(=O)N[C@@H](Cc3ccccc3)[C@H](O)CNCc3cccc(C(C)(F)F)c3)cc(N(C)C)c2)n1 [Compound 227, N1-((2S,3R)-4-(3-(1,1-difluoroethyl)benzylamino)-3-hydroxy-1-phenylbutan-2-yl)-5-(dimethylamino)-N3-methyl-N3-((4-methylthiazol-2-yl)methyl)isophthalamide]	< 1	–	–	< 0.3
